Here are results for 22 molecules from ChEMBL document CHEMBL4376890, “Unique Sulfur-Aromatic Interactions Contribute to the Binding of Potent Imidazothiazole Indoleamine 2,3-Dioxygenase Inhibitors” (J Med Chem, 2020).

The structures appear in SMILES notation.

The target of one assay is T1, Indoleamine 2,3-dioxygenase 1 (Homo sapiens, UniProt P14902). Nature of the assay: Inhibition of recombinant full-length N-terminal His-tagged human IDO1 (1 to 403 residues) expressed in Escherichia coli BL21(DE3) cells.
T1 sequence (P14902 whole entry, the tested form may be a part): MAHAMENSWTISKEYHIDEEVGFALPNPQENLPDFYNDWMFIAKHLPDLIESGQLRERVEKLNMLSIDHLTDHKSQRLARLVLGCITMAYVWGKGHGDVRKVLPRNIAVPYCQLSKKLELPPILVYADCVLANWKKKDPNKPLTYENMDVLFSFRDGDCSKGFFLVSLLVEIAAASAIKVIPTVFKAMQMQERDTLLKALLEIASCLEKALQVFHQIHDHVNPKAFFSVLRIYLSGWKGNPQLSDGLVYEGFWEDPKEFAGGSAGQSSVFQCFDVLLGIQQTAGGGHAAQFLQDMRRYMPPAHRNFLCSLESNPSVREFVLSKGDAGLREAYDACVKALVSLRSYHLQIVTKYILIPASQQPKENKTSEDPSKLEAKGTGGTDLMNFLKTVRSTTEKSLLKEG
In general, IC50 refers to the point on the concentration scale where inhibition reaches its midpoint. Regarding `S=C(NCc1cnc2scc(C#CC3CC3)n12)Nc1cccc(Cl)c1`, the concentration for half-maximal inhibition (IC50) was 27.6 nM.

`OC(c1ccccc1)c1cnc2scc(-c3ccc(Br)cc3)n12` (configuration not stated): the 50% inhibitory concentration (IC50) turned out to be 1090 nM.

On to `N#Cc1ccc(NC(=O)NCc2cnc3scc(C#Cc4cccnc4)n23)cc1`, for which the concentration for half-maximal inhibition (IC50) was 3200 nM.

Regarding `CCCCNC(=S)NCc1cnc2scc(C#CC3CC3)n12`, the IC50 was determined as 502 nM.

`O=C(NCc1cnc2scc(C#CC3CC3)n12)Nc1cccc(Cl)c1`: the 50% inhibitory concentration (IC50) turned out to be 42 nM.

As to `N#Cc1ccc(NC(=O)NCc2cnc3scc(C#Cc4ccsc4)n23)cc1`, the IC50 came out at 73.9 nM.

For the molecule `O=C(CSc1nnc2scc(-c3ccc(Cl)cc3)n12)c1ccc(Br)cc1`, the 50% inhibitory concentration (IC50) turned out to be 339 nM.

Consider `OC(c1cnc2scc(-c3ccc(Br)cc3)n12)C1CCCCC1` (configuration not stated), for which the IC50 was 1280 nM.

In the case of `N#Cc1ccc(NC(=O)NCc2cnc3scc(C#CC4CCCC4)n23)cc1`, the 50% inhibitory concentration (IC50) stood at 418 nM.

Regarding `N#Cc1ccc(NC(=O)NCc2cnc3scc(C#Cc4ccc(Cl)s4)n23)cc1`, the IC50 came out at 823 nM.

Regarding `N#Cc1ccc(NC(=S)NCc2cnc3scc(C#CC4CC4)n23)cc1`, the half-inhibitory concentration (IC50) came out at 16.4 nM.

Consider `OC(c1cnc2scc(C#CC3CC3)n12)C1CCCCC1` (configuration not stated), for which the concentration for half-maximal inhibition (IC50) is 7150 nM.

As to `Brc1ccc(-c2csc3nccn23)cc1`, the IC50 is 380 nM.

As to `CCCS(=O)(=O)NCc1cnc2scc(-c3ccc(Br)cc3)n12`, the IC50 was 1070 nM.

Regarding `O=S(=O)(Cc1cccc(Cl)c1)NCc1cnc2scc(-c3ccc(Br)cc3)n12`, the IC50 was 744 nM.

Consider `Cc1sc2nccn2c1-c1ccc(Br)cc1`, for which the IC50 was 3110 nM.

Regarding `O=C(CSc1nnc2scc(-c3ccc(Br)cc3)n12)c1ccc(Br)cc1`, the IC50 was more than 10000 nM.

In the case of `CC(C)CSc1nnc2scc(-c3ccc(Cl)cc3)n12`, the IC50 worked out at 256 nM.

As for `Cc1ccc(CS(=O)(=O)NCc2cnc3scc(-c4ccc(Br)cc4)n23)cc1`, the IC50 was 855 nM.

Take `N#Cc1ccc(NC(=O)NCc2cnc3scc(C#CC4CC4)n23)cc1`: the IC50 came to 102 nM.

As for `O=C(CSc1nnc2scc(C3CCCCC3)n12)c1ccc(Br)cc1`, the IC50 is more than 10000 nM.

The next assay deals with T1, Indoleamine 2,3-dioxygenase 1. Nature of the assay: Inhibition of human […] by HTS assay.
The molecule `O=C(CSc1nnc2scc(-c3ccccc3)n12)Nc1ccc(Cl)cc1` came in with a half-maximal inhibitory concentration (IC50) of 1190 nM.
